Reference: BindingDB's records for doi:10.1021/jm00018a001 (Smithkline Beecham Pharmaceuticals, 1995)

Assays:
[1] = target: Alpha-1B adrenergic receptor (Mesocricetus auratus) (UniProt P18841); assay: Binding affinity against Alpha-1B adrenergic receptor from hamster clones.
[2] = target: Alpha-1B adrenergic receptor (Mesocricetus auratus) (UniProt P18841); assay: The compound was tested for binding affinity against Alpha-1B adrenergic receptor, from hamster clones.

Chain of Alpha-1B adrenergic receptor (Mesocricetus auratus) (P18841 whole entry, looked up): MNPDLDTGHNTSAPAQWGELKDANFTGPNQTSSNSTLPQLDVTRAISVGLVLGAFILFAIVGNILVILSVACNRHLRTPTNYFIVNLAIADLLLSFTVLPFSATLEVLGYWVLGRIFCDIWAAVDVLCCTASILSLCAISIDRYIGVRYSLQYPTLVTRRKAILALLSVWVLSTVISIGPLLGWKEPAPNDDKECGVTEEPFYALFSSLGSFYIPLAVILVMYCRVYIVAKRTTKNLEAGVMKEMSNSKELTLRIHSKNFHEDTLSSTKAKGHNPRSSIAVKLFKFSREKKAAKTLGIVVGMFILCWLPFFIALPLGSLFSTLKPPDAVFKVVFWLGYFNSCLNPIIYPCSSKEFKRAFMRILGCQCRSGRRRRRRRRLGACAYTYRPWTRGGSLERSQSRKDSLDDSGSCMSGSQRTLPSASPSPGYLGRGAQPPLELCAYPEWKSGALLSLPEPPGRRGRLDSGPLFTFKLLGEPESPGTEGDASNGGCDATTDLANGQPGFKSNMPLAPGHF

| Compound | Ki [1] | Ki [2] |
| --- | --- | --- |
| COc1cc2c(cc1OC)CN(c1cc(N)c3cc(OC)c(OC)cc3n1)CC2 | 0.00011 µM | – |
| COc1cc2nc(N(C)CCCNC(=O)C3CCCO3)nc(N)c2cc1OC (stereo not drawn) [N-{3-[(4-amino-6,7-dimethoxyquinazolin-2-yl)(methyl)amino]propyl}tetrahydrofuran-2-carboxamide] | 0.012 µM | – |
| O=C(NC1CCN(CCc2c[nH]c3ccccc23)CC1)c1ccccc1 [N-{1-[2-(1H-Indol-3-yl)-ethyl]-piperidin-4-yl}-benzamide(indoramin)] | – | 0.025 µM |
